Converted amounts (≈) assume the structure as drawn.
Legend:
Test in all cases: In vitro antibacterial evaluation: minimum inhibitory concentration (MIC), broth dilution method
Assay type in all cases: cell-based
Enterococcus sp. = test system: Enterococcus sp.
Procedure, shortened: (§1)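 Inoculum: 5×10^5 CFU/mL. Range: 64-0.06 μg/mL. Medium: Muller-Hinton II […]; NCCLS M7-A2 broth dilution. Endpoint: lowest concentration inhibiting growth. Strains include methicillin-, penicillin- and/or vancomycin-resistant clinical isolates.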

Staphylococcus sp. = settings: broth dilution, 18 hours at 35° C.
Procedure, shortened: as §1

Escherichia coli = test system: Escherichia coli
Procedure, shortened: as §1

Streptococcus sp. = test system: Streptococcus sp.
Procedure, shortened: as §1

[1] = broth dilution, inoculum 5×10^5 CFU/mL, 18 hours at 35° C.

CC(c1ccccc1)C1NC(=O)CNC(=O)C(CO)NC(=O)C(C(O)C2CNC(=N)N2C2OC(CO)C(O)C(O)C2O)NC(=O)C(C(O)C2CNC(=N)N2)NC(=O)C(Cc2ccc(OC3OC(CO)C(OC4OC5COC(c6cccc(Oc7ccccc7)c6)OC5C(O)C4O)C(O)C3O)cc2)NC1=O (stereo not drawn) [Example 170, Cyclo[glycyl-β-methylphenylalanyl-O-[4-O-[4,6-O-(3-phenoxybenzylidene)hexopyranosyl]-hexopyranosyl]tyrosyl-3-(2-iminoimidazoliclin-4-yl)seryl-3-(3-hexopyranosyl-2-iminoimidazolidin-4-yl)serylseryl]]
MIC Enterococcus avium (GC 4558) (Enterococcus sp.; [1]): 4 µg/mL (≈ 2.71 µM)
MIC Enterococcus faecalis (ATCC 29212) (Enterococcus sp.; [1]): 4 µg/mL (≈ 2.71 µM)
MIC Enterococcus faecalis (GC 2242) (Enterococcus sp.; [1]): 4 µg/mL (≈ 2.71 µM)
MIC Enterococcus faecalis (GC 2691) (Enterococcus sp.; [1]): 4 µg/mL (≈ 2.71 µM)
MIC Enterococcus faecalis (GC 3059) (Enterococcus sp.; [1]): 4 µg/mL (≈ 2.71 µM)
MIC Enterococcus faecalis (GC 4552) (Enterococcus sp.; [1]): 4 µg/mL (≈ 2.71 µM)
MIC Enterococcus faecalis (GC 4553) (Enterococcus sp.; [1]): 4 µg/mL (≈ 2.71 µM)
MIC Enterococcus faecalis (GC 4554) (Enterococcus sp.; [1]): 2 µg/mL (≈ 1.36 µM)
MIC Enterococcus faecalis (GC 6189) (Enterococcus sp.; [1]): 4 µg/mL (≈ 2.71 µM)
MIC Enterococcus faecium (GC 2243) (Enterococcus sp.; [1]): 4 µg/mL (≈ 2.71 µM)
MIC Enterococcus faecium (GC 4556) (Enterococcus sp.; [1]): 4 µg/mL (≈ 2.71 µM)
MIC Enterococcus faecium (GC 4557) (Enterococcus sp.; [1]): 4 µg/mL (≈ 2.71 µM)
MIC Enterococcus faecalis (ATCC 29212) (Enterococcus sp.; strain ATCC 29212): 4 µg/mL (≈ 2.71 µM)
MIC Enterococcus faecalis (GC 2242) (Enterococcus sp.; strain GC 2242): 4 µg/mL (≈ 2.71 µM)
MIC Enterococcus faecium (GC 2243) (Enterococcus sp.; strain GC 2243): 4 µg/mL (≈ 2.71 µM)
MIC Enterococcus faecalis (GC 2691) (Enterococcus sp.; strain GC 2691): 4 µg/mL (≈ 2.71 µM)
MIC Enterococcus faecalis (GC 3059) (Enterococcus sp.; strain GC 3059): 4 µg/mL (≈ 2.71 µM)
MIC Enterococcus faecalis (GC 4552) (Enterococcus sp.; strain GC 4552): 4 µg/mL (≈ 2.71 µM)
MIC Enterococcus faecalis (GC 4553) (Enterococcus sp.; strain GC 4553): 4 µg/mL (≈ 2.71 µM)
MIC Enterococcus faecalis (GC 4554) (Enterococcus sp.; strain GC 4554): 2 µg/mL (≈ 1.36 µM)
MIC Enterococcus faecium (GC 4556) (Enterococcus sp.; strain GC 4556): 4 µg/mL (≈ 2.71 µM)
MIC Enterococcus faecium (GC 4557) (Enterococcus sp.; strain GC 4557): 4 µg/mL (≈ 2.71 µM)
MIC Enterococcus avium (GC 4558) (Enterococcus sp.; strain GC 4558): 4 µg/mL (≈ 2.71 µM)
MIC Enterococcus faecalis (GC 6189) (Enterococcus sp.; strain GC 6189): 4 µg/mL (≈ 2.71 µM)
MIC Coagulase Negative Staphylococcus (GC 4547) (Staphylococcus sp.; 5×10^5 CFU/mL): 4 µg/mL (≈ 2.71 µM)
MIC Coagulase Negative Staphylococcus (GC 4548) (Staphylococcus sp.; 5×10^5 CFU/mL): 1 µg/mL (≈ 0.678 µM)
MIC Coagulase Negative Staphylococcus (GC 4549) (Staphylococcus sp.; 5×10^5 CFU/mL): 2 µg/mL (≈ 1.36 µM)
MIC Coagulase Negative Staphylococcus (GC 4551) (Staphylococcus sp.; 5×10^5 CFU/mL): 1 µg/mL (≈ 0.678 µM)
MIC Coagulase Negative Staphylococcus (GC 6257) (Staphylococcus sp.; 5×10^5 CFU/mL): 1 µg/mL (≈ 0.678 µM)
MIC Staphylococcus aureus (ATCC 29213) (Staphylococcus sp.; 5×10^5 CFU/mL): 4 µg/mL (≈ 2.71 µM)
MIC Staphylococcus aureus (GC 1131) (Staphylococcus sp.; 5×10^5 CFU/mL): 4 µg/mL (≈ 2.71 µM)
MIC Staphylococcus aureus (GC 3051) (Staphylococcus sp.; 5×10^5 CFU/mL): 4 µg/mL (≈ 2.71 µM)
MIC Staphylococcus aureus (GC 3053) (Staphylococcus sp.; 5×10^5 CFU/mL): 1 µg/mL (≈ 0.678 µM)
MIC Staphylococcus aureus (GC 4541) (Staphylococcus sp.; 5×10^5 CFU/mL): 2 µg/mL (≈ 1.36 µM)
MIC Staphylococcus aureus (GC 4542) (Staphylococcus sp.; 5×10^5 CFU/mL): 4 µg/mL (≈ 2.71 µM)
MIC Staphylococcus aureus (GC 4544) (Staphylococcus sp.; 5×10^5 CFU/mL): 2 µg/mL (≈ 1.36 µM)
MIC Staphylococcus aureus (GC 4545) (Staphylococcus sp.; 5×10^5 CFU/mL): 4 µg/mL (≈ 2.71 µM)
MIC Staphylococcus aureus-SMITH (GC 4543) (Staphylococcus sp.; 5×10^5 CFU/mL): 4 µg/mL (≈ 2.71 µM)
MIC Staphylococcus haemolyticus (GC 4546) (Staphylococcus sp.; 5×10^5 CFU/mL): 8 µg/mL (≈ 5.42 µM)
MIC Staphylococcus aureus (ATCC 29213) (Staphylococcus sp.; strain ATCC 29213): 4 µg/mL (≈ 2.71 µM)
MIC Staphylococcus aureus (GC 1131) (Staphylococcus sp.; strain GC 1131): 4 µg/mL (≈ 2.71 µM)
MIC Staphylococcus aureus (GC 3051) (Staphylococcus sp.; strain GC 3051): 4 µg/mL (≈ 2.71 µM)
MIC Staphylococcus aureus (GC 3053) (Staphylococcus sp.; strain GC 3053): 1 µg/mL (≈ 0.678 µM)
MIC Staphylococcus aureus (GC 4541) (Staphylococcus sp.; strain GC 4541): 2 µg/mL (≈ 1.36 µM)
MIC Staphylococcus aureus (GC 4542) (Staphylococcus sp.; strain GC 4542): 4 µg/mL (≈ 2.71 µM)
MIC Staphylococcus aureus (GC 4544) (Staphylococcus sp.; strain GC 4544): 2 µg/mL (≈ 1.36 µM)
MIC Staphylococcus aureus (GC 4545) (Staphylococcus sp.; strain GC 4545): 4 µg/mL (≈ 2.71 µM)
MIC Escherichia coli (ATCC 25922) (Escherichia coli; strain ATCC 25922): >64 µg/mL
MIC Escherichia coli (GC 4559) (Escherichia coli; strain GC 4559): >64 µg/mL
MIC Escherichi coli (GC 4560) (Escherichia coli; strain GC 4560): 4 µg/mL (≈ 2.71 µM)
MIC Streptococcus agalactiae (GC 4564) (Streptococcus sp.; [1]): <0.06 µg/mL
MIC Streptococcus pneumoniae (ATCC 6301) (Streptococcus sp.; [1]): <0.06 µg/mL
MIC Streptococcus pneumoniae (GC 1894) (Streptococcus sp.; [1]): <0.06 µg/mL
MIC Streptococcus pneumoniae (GC 4565) (Streptococcus sp.; [1]): <0.06 µg/mL
MIC Streptococcus pyogenes (GC 4563) (Streptococcus sp.; [1]): <0.06 µg/mL
MIC Streptococcus pneumoniae (ATCC 6301) (Streptococcus sp.; strain ATCC 6301): <0.06 µg/mL
MIC Streptococcus pneumoniae (GC 1894) (Streptococcus sp.; strain GC 1894): <0.06 µg/mL
MIC Streptococcus pyogenes (GC 4563) (Streptococcus sp.; strain GC 4563): <0.06 µg/mL
MIC Streptococcus agalactiae (GC 4564) (Streptococcus sp.; strain GC 4564): <0.06 µg/mL
MIC Streptococcus pneumoniae (GC 4565) (Streptococcus sp.; strain GC 4565): <0.06 µg/mL

From patent publication US8247211B2, “Glycopeptide antibiotics” (American Cyanamid Company, priority 2001, dated 2012)
